This data set in a line: Solubility by shake flask method.

≈ marks a conversion by molar mass, not a printed value.

Usually Solubility stands for how much of the substance goes into solution per volume. For the compound `CCCSc1ccc2nc(NC(=O)OC)[nH]c2c1` [ALBENDAZOLE], the Solubility came out at 0.983 µM (≈ 0.261 µg/mL). That is a sub-micromolar value.

For the compound `COc1ccc(CCN2CCC(Nc3nc4ccccc4n3Cc3ccc(F)cc3)CC2)cc1` [ASTEMIZOLE], the Solubility came to 0.0668 µM (≈ 0.0306 µg/mL).

The compound `COc1ccccc1OCCNCC(O)COc1cccc2[nH]c3ccccc3c12` (configuration not stated) [CARVEDILOL] gave a Solubility of 0.713 µM (≈ 0.29 µg/mL).

Consider `CCOC(=O)C1=C(C)NC(C)=C(C(=O)OC)C1c1cccc(Cl)c1Cl` (configuration not stated) [FELODIPINE], for which the Solubility amounted to 0.276 µM (≈ 0.106 µg/mL).

Compound `CCC1=C(C)CN(C(=O)NCCc2ccc(S(=O)(=O)NC(=O)N[C@H]3CC[C@H](C)CC3)cc2)C1=O` [GLIMEPIRIDE] came in with a Solubility of 0.0127 µM (≈ 0.00623 µg/mL). Against the preceding compound, the Solubility is about 22-fold lower.

Take `COc1ccc(Cl)cc1C(=O)NCCc1ccc(S(=O)(=O)NC(=O)NC2CCCCC2)cc1` [GLYBURIDE]: the Solubility came out at 0.0891 µM (≈ 0.044 µg/mL).

`COc1ccc2c(c1)c(CC(=O)O)c(C)n2C(=O)c1ccc(Cl)cc1` [INDOMETHACIN] registered a Solubility of 1.1333 µM (≈ 0.405 µg/mL).

`CCC(C)n1ncn(-c2ccc(N3CCN(c4ccc(OCC5COC(Cn6cncn6)(c6ccc(Cl)cc6Cl)O5)cc4)CC3)cc2)c1=O` (configuration not stated) [ITRACONAZOLE]: the Solubility worked out at 0.0033 µM (≈ 0.00233 µg/mL).

`Cc1c(C(=O)NN2CCCCC2)nn(-c2ccc(Cl)cc2Cl)c1-c1ccc(Cl)cc1` [RIMONABANT] registered a Solubility of 0.0965 µM (≈ 0.0448 µg/mL).

`CC(C)(C)c1ccc(C(O)CCCN2CCC(C(O)(c3ccccc3)c3ccccc3)CC2)cc1` (configuration not stated) [TERFENADINE] displayed a Solubility of 0.0116 µM (≈ 0.00547 µg/mL). Against the preceding compound, the Solubility is about 8.3-fold lower.

Turning to `Cc1c(Cl)cccc1Nc1ccccc1C(=O)O` [TOLFENAMIC ACID], the Solubility was found to be 0.0136 µM (≈ 0.00356 µg/mL). The Solubility values of the last two compounds are within 1.5-fold of each other.

As to `Cc1c(C)c2c(c(C)c1O)CCC(C)(COc1ccc(CC3SC(=O)NC3=O)cc1)O2` (configuration not stated) [TROGLITAZONE], the Solubility was < 0.0159 µM.

The record behind these values is ChEMBL document CHEMBL1137616, “Poorly soluble marketed drugs display solvation limited solubility” (J Med Chem, 2007).
